Series [1] deals with T1, α1A (rat submaxillary gland) (Rattus norvegicus, UniProt P43140).
T1 construct: α1A (rat submaxillary gland); from tissue; host or cells: rat submaxillary gland
T1 sequence (P43140 1-466): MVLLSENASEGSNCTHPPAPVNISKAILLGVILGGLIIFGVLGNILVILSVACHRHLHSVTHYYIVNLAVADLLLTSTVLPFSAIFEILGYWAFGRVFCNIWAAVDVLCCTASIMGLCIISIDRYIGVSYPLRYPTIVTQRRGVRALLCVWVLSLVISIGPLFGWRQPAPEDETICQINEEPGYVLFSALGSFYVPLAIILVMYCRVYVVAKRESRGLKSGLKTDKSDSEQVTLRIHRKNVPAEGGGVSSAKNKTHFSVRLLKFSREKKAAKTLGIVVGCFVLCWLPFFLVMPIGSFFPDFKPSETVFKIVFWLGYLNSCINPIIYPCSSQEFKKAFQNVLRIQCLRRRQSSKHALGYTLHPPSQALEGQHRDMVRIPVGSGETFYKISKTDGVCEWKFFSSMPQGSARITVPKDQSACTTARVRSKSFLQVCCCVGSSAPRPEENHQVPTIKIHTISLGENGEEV
Briefly: Radioligand binding, [3H]-prazosin, α1A. An outline of the steps:
(§1)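 [3H]-prazosin radioligand displacement; α1A from rat submaxillary gland tissue, α1b hamster and α1d rat receptors each expressed in mouse fibroblasts.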

Series [2] concerns the target T2, α1b (hamster receptor expressed in mouse fibroblasts) (Mesocricetus auratus, UniProt P18841).
T2 construct: expressed in transfected cells; host or cells: mouse fibroblasts
T2 sequence (P18841 1-515): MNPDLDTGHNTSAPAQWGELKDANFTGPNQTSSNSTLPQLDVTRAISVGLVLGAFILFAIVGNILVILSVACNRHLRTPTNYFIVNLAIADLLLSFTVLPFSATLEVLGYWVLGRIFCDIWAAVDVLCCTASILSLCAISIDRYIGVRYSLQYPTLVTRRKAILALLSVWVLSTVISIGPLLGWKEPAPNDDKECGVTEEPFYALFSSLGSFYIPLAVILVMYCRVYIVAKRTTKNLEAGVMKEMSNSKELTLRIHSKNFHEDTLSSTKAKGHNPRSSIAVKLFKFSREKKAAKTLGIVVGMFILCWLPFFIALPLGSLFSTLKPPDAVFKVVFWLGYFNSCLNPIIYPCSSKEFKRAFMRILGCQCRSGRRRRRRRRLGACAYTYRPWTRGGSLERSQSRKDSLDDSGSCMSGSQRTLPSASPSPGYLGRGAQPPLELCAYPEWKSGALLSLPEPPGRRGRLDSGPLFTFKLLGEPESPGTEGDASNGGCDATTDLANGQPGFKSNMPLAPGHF
Briefly: Radioligand binding, [3H]-prazosin, α1b. An outline of the steps: as §1

Series [3] has as its target T3, α1d (rat receptor expressed in mouse fibroblasts) (Rattus norvegicus, UniProt P23944).
T3 construct: expressed in transfected cells; host or cells: mouse fibroblasts
T3 sequence (P23944 1-561): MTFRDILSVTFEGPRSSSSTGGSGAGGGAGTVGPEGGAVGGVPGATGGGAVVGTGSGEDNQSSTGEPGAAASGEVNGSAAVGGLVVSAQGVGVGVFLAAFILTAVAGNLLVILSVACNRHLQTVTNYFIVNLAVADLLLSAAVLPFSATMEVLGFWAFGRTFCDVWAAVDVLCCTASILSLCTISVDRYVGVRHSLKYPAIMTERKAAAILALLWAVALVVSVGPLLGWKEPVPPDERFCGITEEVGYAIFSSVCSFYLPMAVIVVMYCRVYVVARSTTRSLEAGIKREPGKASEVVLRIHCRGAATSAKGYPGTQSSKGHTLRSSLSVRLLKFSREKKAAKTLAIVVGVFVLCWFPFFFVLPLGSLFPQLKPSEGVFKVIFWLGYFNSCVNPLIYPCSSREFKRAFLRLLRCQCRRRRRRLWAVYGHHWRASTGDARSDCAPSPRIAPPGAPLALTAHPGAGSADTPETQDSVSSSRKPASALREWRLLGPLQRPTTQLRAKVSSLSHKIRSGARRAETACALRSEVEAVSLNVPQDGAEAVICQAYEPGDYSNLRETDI
The series can be described thus: Radioligand binding, [3H]-prazosin, α1d. A digest of the protocol:
as §1

In the next series the target is T4, α1A (rabbit urethra) (Oryctolagus cuniculus, UniProt O02824).
T4 construct: tested for α1A functional activity using rabbit urethra; from tissue; host or cells: rabbit urethra (female New Zealand white rabbits)
T4 sequence (O02824 1-466): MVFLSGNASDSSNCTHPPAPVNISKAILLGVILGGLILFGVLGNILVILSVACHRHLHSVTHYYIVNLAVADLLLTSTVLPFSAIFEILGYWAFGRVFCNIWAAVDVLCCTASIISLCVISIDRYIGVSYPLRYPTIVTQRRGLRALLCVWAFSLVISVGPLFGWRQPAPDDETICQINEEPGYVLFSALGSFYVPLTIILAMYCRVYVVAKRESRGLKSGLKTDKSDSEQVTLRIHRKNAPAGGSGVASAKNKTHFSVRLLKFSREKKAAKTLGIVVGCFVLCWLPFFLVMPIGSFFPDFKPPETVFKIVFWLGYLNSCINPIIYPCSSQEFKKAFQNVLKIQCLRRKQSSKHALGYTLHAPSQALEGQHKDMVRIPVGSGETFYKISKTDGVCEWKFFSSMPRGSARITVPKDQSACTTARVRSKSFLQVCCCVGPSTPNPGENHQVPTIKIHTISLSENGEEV
The series can be described thus: Agonist tissue response, contraction of rabbit urethra. The class given is biochemical. The note with it: values without asterisk, read-out: Agonist Tissue Response (pD2) α1A (rab ureth) (converted). The procedure:
Most of the compounds were tested for α1A functional activity using rabbit urethra as follows. Female New Zealand white rabbits (2.0-3.5 Kg) were sedated with CO2 and decapitated. […] Subsequent experimental conditions were as described above for the other tissues. Agonist concentration response curves were cumulative except for the vas deferens assay in which the transient response made such measurements impractical.

Series [4] relates to anesthetized dogs. Briefly: Intraurethral pressure (IUP) in anesthetized dogs. The series is classed as in vivo, dog. The note with it: for ED (5 mm Hg): Canis lupus familiaris, iv dose causing a maximum increase in IUP of 5 mm Hg, anesthetized female Beagle dogs, read-out: Mean IUP ED5; for Mean Selectivity Ratio MAP ED20/IUP ED5: anesthetized dogs, iv. The source says:
(§2) Female Beagle dogs (Marshall Farms, North Rose, N.Y.) greater that 2 years of age and weighing between 12 and 15 kg were used in these studies. At least 2 weeks prior to any agonist dosing, dogs were instrumented for the chronic measurement of arterial blood pressure by implanting a telemetry transducer/transmitter (TA11PA-C40, Data Sciences International, St. Paul, Minn.) into a carotid artery.
(§3) On the test day, dogs fasted since the previous afternoon were pre-anesthetized with thiopental sodium 15 mg/kg i.v. (Pentothal™, Abbott) and intubated. Anesthesia was maintained by allowing the dog to spontaneously breathe a mixture of isoflurane (2.5 to 3 volume %) and oxygen delivered by a Narkomed Standard anesthesia system (North American Drager, Telford, Pa.). An Abbocath-T™ i.v. catheter (18-G, Abbott) was inserted into the cephalic vein for the administration of agonists. A telemetry receiver (RA1310, DataSciences) was placed under the head of each dog and was interfaced to a computerized data acquisition system (Modular Instruments Inc.(MI2), Malvern, Pa.) which allowed for the continuous calibrated recording of arterial blood pressure which was electronically filtered to determine its mean value (MAP).
Dogs with chronic telemetry implants anesthetized as described above were placed in dorsal recumbency and a balloon catheter was inserted into the urethral orifice and advanced approximately 15 cm until the tip was well inside the bladder. The balloon was then inflated with 1 ml of room air and the catheter slowly withdrawn until resistance (corresponding to the bladder neck) was evident. The balloon was then deflated and the catheter withdrawn additional 2 cm. The balloon was then reinflated and its catheter port connected to a Gould Statham P23Dd pressure transducer interfaced to a computerized data acquisition system (Modular Instruments, Inc., Malvern, Pa.) for the measurement of the intraurethral pressure. Increasing iv doses of test agonists were administered and the maximum effect of each dose on IUP was recorded. The effect of each dose was allowed to return to baseline before the next dose was given.
(§4) From the resulting dose response curve, an ED5 value, for the dose causing a maximum increase in IUP of 5 mm Hg, could be estimated. An ED20 value for the dose causing a maximum increase in MAP of 20 mm Hg could also be estimated. A selectivity ratio of MAP ED20 vs. IUP ED, was calculated.

Series [5] has as its system anesthetized dogs. Briefly: Mean arterial pressure (MAP) in anesthetized dogs. The note with it: iv dose causing a maximum increase in MAP of 20 mm Hg, anesthetized female Beagle dogs. The series is classed as in vivo, dog.
Source text: as §2, §3, §4

The target in a further series is T5, α1B (rat spleen) (Rattus norvegicus, UniProt P15823).
T5 construct: α1B (rat spleen) and α1D (rat aorta) receptors; from tissue; host or cells: rat spleen
T5 sequence (P15823 1-515): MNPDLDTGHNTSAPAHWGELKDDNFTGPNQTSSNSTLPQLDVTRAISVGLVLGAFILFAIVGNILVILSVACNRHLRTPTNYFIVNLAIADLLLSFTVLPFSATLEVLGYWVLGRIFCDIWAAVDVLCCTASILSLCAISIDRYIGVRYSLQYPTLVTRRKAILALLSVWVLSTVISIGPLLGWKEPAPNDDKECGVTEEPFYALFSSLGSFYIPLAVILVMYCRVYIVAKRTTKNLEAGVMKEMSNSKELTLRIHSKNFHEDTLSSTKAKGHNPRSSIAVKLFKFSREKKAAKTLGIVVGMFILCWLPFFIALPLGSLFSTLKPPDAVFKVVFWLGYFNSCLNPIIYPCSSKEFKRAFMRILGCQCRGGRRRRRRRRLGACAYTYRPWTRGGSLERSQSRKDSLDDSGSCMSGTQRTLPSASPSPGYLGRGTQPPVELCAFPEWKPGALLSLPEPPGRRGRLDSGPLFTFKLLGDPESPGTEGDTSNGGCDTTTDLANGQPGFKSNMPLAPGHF
Briefly: Agonist tissue response, contraction of rat spleen. The series is classed as biochemical. The note with it: read-out: Agonist Tissue Response (pD2) α1B (rat spleen) (converted).

[6] abbreviates: hamster receptor expressed in mouse fibroblasts, [3H]-prazosin, read-out: Radioligand Binding Ki α1b (Hamster).
[7] abbreviates: rat receptor expressed in mouse fibroblasts, [3H]-prazosin, read-out: Radioligand Binding Ki α1d (Rat).

Read-outs that look alike come from different tables or passages of the source.

As a reminder, the Ki is the equilibrium dissociation constant of an inhibitor or competing ligand from its target. As to `O=C(Nc1cccc2c1CCCC2c1c[nH]cn1)N1CCOCC1` (centres unmarked) [Example 117, N-[5-(1H-imidazol-4-yl)-5,6,7,8-tetrahydro-1-naphthalenyl]-4-morpholinecarboxamide], the figures for the Ki in series [1], in series [2] and in series [3] were 1100 nM, 10 µM and 10 µM, respectively. Moreover, the EC50 on α1A (rabbit urethra) is 5.37 µM. Also, in the series on anesthetized dogs [4], the ED (5 mm Hg) came to 0.873 µmol/kg. In the series on anesthetized dogs [4], the “Mean Selectivity Ratio MAP ED20/IUP ED5” value is recorded as 0.75. The “Mean MAP ED20” value in the series with anesthetized dogs [5] was 645 nmol/kg.
Consider `CCN(C(=O)Nc1cccc2c1CCCC2c1c[nH]cn1)C1CCCCC1` (centres unmarked) [Example 113, N-cyclohexyl-N-ethyl-N′-[5-(1H-imidazol-4-yl)-5,6,7,8-tetrahydro-1-naphthalenyl]urea], for which the results for the Ki in series [1], in series [2] (setting [6]) and in series [3] (setting [7]) were 536 nM, 10 µM and 2.11 µM, respectively. Besides, the EC50 on α1A (rabbit urethra) is 3.98 µM. Also, the “Mean MAP ED20” value in the series with anesthetized dogs [5] worked out at 733.7 nmol/kg.
Take `C=C(c1cccc(NS(C)(=O)=O)c1)c1c[nH]cn1` [Example 92, N-{3-[1-(1H-imidazol-4-yl)vinyl]phenyl}methanesulfonamide]: the Ki came out at 689 nM in series [1], 10 µM in series [2] (setting [6]) and 1.98 µM in series [3] (setting [7]). The EC50 at α1A (rabbit urethra) is 3.24 µM. Further, in the series on anesthetized dogs [4], the ED (5 mm Hg) was found to be 0.397 µmol/kg. The “Mean MAP ED20” value in the series on anesthetized dogs [5] is given as 652.06 nmol/kg.
In the case of `CCS(=O)(=O)Nc1cccc(C(=C2CCCCC2)c2c[nH]cn2)c1` [Example 56], the Ki came to 0.0161 µM in series [2] and 0.00246 µM in series [3]. Further, the EC50 at α1B (rat spleen) was 186 µM.
As to `O=C(Nc1cccc2c1CCCC2c1c[nH]cn1)N1CCCCC1` (centres unmarked) [Example 114, N-[5-(1H-imidazol-4-yl)-5,6,7,8-tetrahydro-1-naphthalenyl]-1-piperidinecarboxamide], the Ki came out at 1050 nM in series [1], 10 µM in series [2] (setting [6]) and 5.62 µM in series [3] (setting [7]). Besides, the EC50 at α1A (rabbit urethra) is 9.12 µM. The ED (5 mm Hg) with anesthetized dogs [4] came out at 1.68 µmol/kg. Besides, the “Mean Selectivity Ratio MAP ED20/IUP ED5” value with anesthetized dogs [4] is 0.97. The “Mean MAP ED20” value with anesthetized dogs [5] worked out at 1074.07 nmol/kg.
Consider `CC1CC(C)CN(C(=O)Nc2cccc3c2CCCC3c2c[nH]cn2)C1` (centres unmarked) [Example 115, N-[5-(1H-imidazol-4-yl)-5,6,7,8-tetrahydro-1-naphthalenyl]-3,5-dimethyl-1-piperidinecarboxamide], for which the Ki stood at 1160 nM in series [1], 10 µM in series [2] (setting [6]) and 10 µM in series [3] (setting [7]). Moreover, on α1A (rabbit urethra), the EC50 is 5.5 µM. In the series on anesthetized dogs [4], the ED (5 mm Hg) amounted to 0.5 µmol/kg. In the series on anesthetized dogs [4], the “Mean Selectivity Ratio MAP ED20/IUP ED5” value amounted to 1.05. Also, the “Mean MAP ED20” value in the series with anesthetized dogs [5] came to 500 nmol/kg.
